Results as given in article PMC7736581, “Activation of the IRE1 RNase through remodeling of the kinase front pocket by ATP-competitive ligands” (Nature Communications, 2020).
Like-named read-outs stand apart in the source and are kept apart here.

Key:
[1] = biological target: Inositol-Requiring Enzyme 1 (IRE1) (Homo sapiens, UniProt O75460); assay: biochemical; design: gene ERN1; IRE1 cytoplasmic kinase-RNase construct; kinetic fluorescence RNA cleavage (FAM/BHQ XBP1 stem-loop) by IRE1 LKR Q470-L977
Procedure: A 5′-Carboxyfluorescein (FAM)-and 3′-Black Hole Quencher (BHQ)-labeled single stem-loop mini-substrate containing XBP1 sequence (sequence reported in Supplementary Table 4) was used as substrate for cleavage by IRE1 LKR (Q470-L977) or IRE1 KR (G547-L977) in 20 mM HEPES pH 7.5, 50 mM potassium acetate, 1 mM magnesium acetate, 1 mM dithiothreitol, 0.05% v/v TritonX-100. Concentrations were as follows: 8 nM IRE1 LKR and 200 nM RNA substrate; 22 nM IRE1 KR-0P and 200 nM RNA substrate; 2 nM IRE1 KR 3P and 500 nM RNA substrate. RNA cleavage was measured kinetically over an hour at room temperature as an increase in fluorescence. The final reaction was carried out in 20 µL in 384-well plates. Samples were run in duplicate. To investigate whether this peculiar conformation had any role in the mechanism of activation of G-1749, we evaluated different tails to substitute the ethyl carbamate on the naphthyl moiety (Fig. 3, Supplementary Table 2). […] This is likely due to clashes with residues lining the front pocket, which in turn would force the tails to occupy the back pocket and break the salt bridge, thereby causing RNase inhibition. […] Experiments in KMS-11 cells (Fig. 3b, c, right panels) confirmed the effect of these tail modifications on IRE1 RNase activation. […] The chemical substituents tolerated by the front pocket seem to be very limited: even a minor substitution of the carbamate oxygen atom to a larger [compound left out], from ethyl carbamate to propyl amide (compound 6), or from methyl carbamate to methyl or ethyl amide (compound 4 or 5, respectively), or increasing the tail length by one atom, from ethyl to propyl carbamate (compound 11), is enough to impart a switch from activation to inhibition (Fig. 3b, c). […] RNA cleavage was measured by a kinetic fluorescence assay using an XBP1-like RNA hairpin substrate and IRE1 LKR construct (Q470-L977). Background from the no-protein control was subtracted from signal before calculating fold change. Source data are provided as a Source Data file. Data are presented as the mean for measurements from two independent experiments (n = 2). c RNA levels for IRE1 RNase product XBP1s measured by bDNA assay of lysates from KMS-11 cells treated with compounds for 4 h. Background from the no-RNA control was subtracted from signal before calculating fold change. Source data are provided as a Source Data file. Data are presented as the mean for measurements from two independent experiments (n = 2). d, e Analytical Ultracentrifugation sedimentation velocity (SV-AUC) experiments for (d), IRE1 LKR (Q470-L977) unphosphorylated and autophosphorylated and (e), IRE1 LKR unphosphorylated in the presence of slight excess G-9807 and G-1749. Calculated sedimentation coefficients for IRE1 monomer (3.1 svedbergs) and dimer (4.6 svedbergs) are highlighted by dotted lines. Source data are provided as a Source Data file.

[2] = system: T1, IRE1 (endogenous, KMS-11); assay: cells; design: XBP1s mRNA by branched DNA assay in KMS-11 cell lysates after compound treatment; details: Homo sapiens, KMS-11, 4 h
T1 construct: endogenous full-length in KMS-11 cells
Procedure: 15-20k KMS-11 cells in RPMI growth media were seeded into 96-well plates and treated with compounds or DMSO control over a period of 4 h the following day. RNA levels of XBP1s and DGAT2 in KMS-11 cell lysates were measured using the QuantiGene 2.0 bDNA assay technology (Thermofisher). See Supplementary Table 4 for sequences of relevant capture probes. Data analysis was carried out against an assay background control with no cell lysate (no-RNA control). In the case of AMG-18, cells were also stimulated with thapsigargin (Tg, 100 nM) 30 min after compound addition. No Tg was used when treating cells with all other compounds. Samples were run in duplicate. To investigate whether this peculiar conformation had any role in the mechanism of activation of G-1749, we evaluated different tails to substitute the ethyl carbamate on the naphthyl moiety (Fig. 3, Supplementary Table 2). […] This is likely due to clashes with residues lining the front pocket, which in turn would force the tails to occupy the back pocket and break the salt bridge, thereby causing RNase inhibition. […] Experiments in KMS-11 cells (Fig. 3b, c, right panels) confirmed the effect of these tail modifications on IRE1 RNase activation. […] The chemical substituents tolerated by the front pocket seem to be very limited: even a minor substitution of the carbamate oxygen atom to a larger [compound left out], from ethyl carbamate to propyl amide (compound 6), or from methyl carbamate to methyl or ethyl amide (compound 4 or 5, respectively), or increasing the tail length by one atom, from ethyl to propyl carbamate (compound 11), is enough to impart a switch from activation to inhibition (Fig. 3b, c). […] RNA cleavage was measured by a kinetic fluorescence assay using an XBP1-like RNA hairpin substrate and IRE1 LKR construct (Q470-L977). Background from the no-protein control was subtracted from signal before calculating fold change. Source data are provided as a Source Data file. Data are presented as the mean for measurements from two independent experiments (n = 2). c RNA levels for IRE1 RNase product XBP1s measured by bDNA assay of lysates from KMS-11 cells treated with compounds for 4 h. Background from the no-RNA control was subtracted from signal before calculating fold change. Source data are provided as a Source Data file. Data are presented as the mean for measurements from two independent experiments (n = 2). d, e Analytical Ultracentrifugation sedimentation velocity (SV-AUC) experiments for (d), IRE1 LKR (Q470-L977) unphosphorylated and autophosphorylated and (e), IRE1 LKR unphosphorylated in the presence of slight excess G-9807 and G-1749. Calculated sedimentation coefficients for IRE1 monomer (3.1 svedbergs) and dimer (4.6 svedbergs) are highlighted by dotted lines. Source data are provided as a Source Data file.

[3] = RNase activation, read-out: EC50 (RNase biochemical assay), activators
[4] = XBP1s mRNA increase, read-out: EC50 (KMS-11 bDNA assay, XBP1s), activators

Chain of Inositol-Requiring Enzyme 1 (IRE1) (O75460 547-977): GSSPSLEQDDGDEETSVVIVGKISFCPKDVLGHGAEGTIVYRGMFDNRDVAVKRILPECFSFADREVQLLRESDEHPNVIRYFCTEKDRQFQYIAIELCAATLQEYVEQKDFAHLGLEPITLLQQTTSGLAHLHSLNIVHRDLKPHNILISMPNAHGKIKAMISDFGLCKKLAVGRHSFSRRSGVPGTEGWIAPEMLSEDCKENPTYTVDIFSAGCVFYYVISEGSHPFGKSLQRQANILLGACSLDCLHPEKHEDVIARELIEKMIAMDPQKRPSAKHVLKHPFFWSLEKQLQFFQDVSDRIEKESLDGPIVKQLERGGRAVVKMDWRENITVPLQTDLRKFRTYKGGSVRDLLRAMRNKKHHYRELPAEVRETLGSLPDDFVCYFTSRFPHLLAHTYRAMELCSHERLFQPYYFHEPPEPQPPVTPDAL

| SMILES | EC50 [1, 3] [nM] | EC50 [2, 4] [nM] | EC50 ([1]; RNase inhibition, read-out: EC50 (RNase biochemical assay), inhibitors) [nM] | EC50 ([2]; 100 nM thapsigargin stimulation, XBP1s mRNA decrease, read-out: EC50 (KMS-11 bDNA assay, XBP1s), inhibitors) [nM] |
| --- | --- | --- | --- | --- |
| CCOC(=O)Nc1cccc2c(Oc3ncccc3-c3ccnc(N[C@H]4CCCNC4)n3)c(C)ccc12 [G-1749] | 9 ± 3 | 1310 ± 168 | – | – |
| CC#CC(=O)Nc1cccc2c(Oc3ncccc3-c3ccnc(N[C@H]4CCCNC4)n3)c(C)ccc12 [G-7658] | 7 ± 1 | 223 ± 33 | – | – |
| Cc1ccc2c(NS(=O)(=O)c3ccccc3Cl)cccc2c1Oc1ncccc1-c1ccnc(N[C@H]2CCCNC2)n1 [AMG-18] | – | – | 17 ± 4 | 193 ± 36 |
| O=c1cc(-c2n[nH]c3ncc(-c4c(F)cccc4F)cc23)nc(N2CCC(O)CC2)[nH]1 [G-9807] | 18 ± 3 | 1770 ± 691 | – | – |
